Assay results published in US20120122860A1, “SOLID FORMS OF SULFONAMIDES AND AMINO ACIDS” (Plexxikon, Inc., priority 2009, published 2012).

Legend:
Btk = Btk (Homo sapiens, UniProt Q06187); experiment: Kinase activity assay, Btk
Src = Src (Homo sapiens, UniProt P12931); experiment: Kinase activity assay, Src
B-Raf V600E = B-Raf V600E (Homo sapiens, UniProt P15056, V600E); experiment: Kinase activity assay, B-Raf V600E; format: biochemical; details: read-out: activity toward kinase B-Raf V600E, IC50
Chain of B-Raf V600E (P15056 whole entry V600E): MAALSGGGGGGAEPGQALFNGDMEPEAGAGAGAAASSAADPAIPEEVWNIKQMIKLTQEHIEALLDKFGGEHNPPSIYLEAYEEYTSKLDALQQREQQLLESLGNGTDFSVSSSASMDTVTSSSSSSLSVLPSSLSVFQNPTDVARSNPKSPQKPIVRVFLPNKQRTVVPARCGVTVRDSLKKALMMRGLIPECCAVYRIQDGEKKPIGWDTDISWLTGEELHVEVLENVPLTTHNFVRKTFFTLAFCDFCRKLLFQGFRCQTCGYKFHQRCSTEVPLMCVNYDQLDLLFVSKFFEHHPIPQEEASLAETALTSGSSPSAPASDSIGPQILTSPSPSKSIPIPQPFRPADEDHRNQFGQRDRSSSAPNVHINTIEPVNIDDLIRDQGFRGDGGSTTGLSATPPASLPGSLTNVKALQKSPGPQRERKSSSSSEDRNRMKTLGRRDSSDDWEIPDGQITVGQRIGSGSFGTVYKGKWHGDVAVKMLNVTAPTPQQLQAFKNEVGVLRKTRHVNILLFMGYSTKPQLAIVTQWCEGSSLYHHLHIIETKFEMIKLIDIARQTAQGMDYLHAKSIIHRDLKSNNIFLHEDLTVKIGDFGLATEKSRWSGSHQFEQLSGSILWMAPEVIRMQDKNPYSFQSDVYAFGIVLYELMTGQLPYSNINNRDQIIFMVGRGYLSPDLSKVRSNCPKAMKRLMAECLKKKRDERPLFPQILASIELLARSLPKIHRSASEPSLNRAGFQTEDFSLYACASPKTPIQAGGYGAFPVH

Kit = Kit (Homo sapiens, UniProt P10721); experiment: Kinase activity assay, Kit
Chain of Kit (P10721 26-976): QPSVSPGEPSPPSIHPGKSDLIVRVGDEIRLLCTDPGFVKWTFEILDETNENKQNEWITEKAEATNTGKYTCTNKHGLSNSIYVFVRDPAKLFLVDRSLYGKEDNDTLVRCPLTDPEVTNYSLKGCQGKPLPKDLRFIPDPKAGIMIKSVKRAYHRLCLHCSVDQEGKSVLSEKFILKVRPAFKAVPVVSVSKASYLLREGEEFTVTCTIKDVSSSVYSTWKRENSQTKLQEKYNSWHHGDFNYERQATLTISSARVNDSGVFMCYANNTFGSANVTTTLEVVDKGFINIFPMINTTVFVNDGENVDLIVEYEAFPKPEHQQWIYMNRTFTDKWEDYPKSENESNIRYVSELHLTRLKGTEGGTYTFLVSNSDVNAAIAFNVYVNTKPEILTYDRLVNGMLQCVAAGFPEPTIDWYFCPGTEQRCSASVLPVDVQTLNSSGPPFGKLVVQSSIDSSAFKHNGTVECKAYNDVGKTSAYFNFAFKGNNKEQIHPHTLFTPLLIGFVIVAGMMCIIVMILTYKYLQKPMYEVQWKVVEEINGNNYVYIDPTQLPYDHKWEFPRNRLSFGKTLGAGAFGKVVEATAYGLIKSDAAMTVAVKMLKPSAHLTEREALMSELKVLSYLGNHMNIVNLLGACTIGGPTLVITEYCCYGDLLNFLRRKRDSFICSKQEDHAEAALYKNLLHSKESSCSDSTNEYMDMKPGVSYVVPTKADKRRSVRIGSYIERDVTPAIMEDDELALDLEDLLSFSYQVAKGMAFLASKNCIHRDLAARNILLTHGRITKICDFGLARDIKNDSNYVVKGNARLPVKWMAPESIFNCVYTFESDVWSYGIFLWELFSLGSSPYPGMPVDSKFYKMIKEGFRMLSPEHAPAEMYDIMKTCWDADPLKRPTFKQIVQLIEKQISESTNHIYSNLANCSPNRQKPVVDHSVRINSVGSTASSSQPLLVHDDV

B-Raf = B-Raf (Homo sapiens, UniProt P15056); experiment: Kinase activity assay, B-Raf; format: biochemical; details: read-out: activity toward kinase B-Raf, IC50
Chain of B-Raf (P15056 whole entry): as the sequence (P15056 whole entry V600E) above, with E600V counted along it

Kdr = Kdr (Homo sapiens, UniProt P35968); experiment: Kinase activity assay, Kdr
Chain of Kdr (P35968 20-1356): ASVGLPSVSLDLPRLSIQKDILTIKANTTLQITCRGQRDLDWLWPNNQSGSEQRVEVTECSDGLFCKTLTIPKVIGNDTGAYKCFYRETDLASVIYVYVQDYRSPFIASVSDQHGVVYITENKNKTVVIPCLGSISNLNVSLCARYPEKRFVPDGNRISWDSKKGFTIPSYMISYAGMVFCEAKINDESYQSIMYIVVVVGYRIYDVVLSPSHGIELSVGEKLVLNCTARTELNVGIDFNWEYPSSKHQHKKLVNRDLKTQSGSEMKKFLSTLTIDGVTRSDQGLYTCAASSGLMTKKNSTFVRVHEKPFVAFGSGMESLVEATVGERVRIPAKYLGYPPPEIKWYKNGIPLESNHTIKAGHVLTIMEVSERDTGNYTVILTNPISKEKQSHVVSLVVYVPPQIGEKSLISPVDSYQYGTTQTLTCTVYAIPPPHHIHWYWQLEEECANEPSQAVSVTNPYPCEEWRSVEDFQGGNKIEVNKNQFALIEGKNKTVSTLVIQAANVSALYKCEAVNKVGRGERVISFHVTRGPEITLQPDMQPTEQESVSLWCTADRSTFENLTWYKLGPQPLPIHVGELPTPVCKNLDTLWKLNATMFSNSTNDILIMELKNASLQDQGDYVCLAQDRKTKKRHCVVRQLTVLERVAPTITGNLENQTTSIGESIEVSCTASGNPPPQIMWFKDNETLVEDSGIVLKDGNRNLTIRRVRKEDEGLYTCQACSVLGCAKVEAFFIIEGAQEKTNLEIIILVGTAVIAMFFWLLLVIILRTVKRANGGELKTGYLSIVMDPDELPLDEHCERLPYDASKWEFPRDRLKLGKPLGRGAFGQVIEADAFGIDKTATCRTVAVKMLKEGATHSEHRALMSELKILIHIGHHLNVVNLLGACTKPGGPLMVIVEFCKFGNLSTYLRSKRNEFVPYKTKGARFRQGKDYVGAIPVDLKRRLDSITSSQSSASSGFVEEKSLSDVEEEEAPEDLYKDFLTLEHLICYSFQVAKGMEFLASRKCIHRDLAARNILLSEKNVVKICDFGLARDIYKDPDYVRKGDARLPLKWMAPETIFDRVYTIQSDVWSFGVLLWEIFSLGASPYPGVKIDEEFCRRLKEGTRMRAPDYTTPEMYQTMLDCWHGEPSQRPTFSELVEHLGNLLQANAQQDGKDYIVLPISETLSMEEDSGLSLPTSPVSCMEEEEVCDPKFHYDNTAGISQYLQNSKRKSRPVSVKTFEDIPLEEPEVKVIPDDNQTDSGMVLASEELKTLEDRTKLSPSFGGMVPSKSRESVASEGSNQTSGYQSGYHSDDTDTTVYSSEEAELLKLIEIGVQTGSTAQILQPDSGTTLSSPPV

Fms = Fms (Homo sapiens, UniProt P07333); experiment: Kinase activity assay, Fms
Chain of Fms (P07333 20-972): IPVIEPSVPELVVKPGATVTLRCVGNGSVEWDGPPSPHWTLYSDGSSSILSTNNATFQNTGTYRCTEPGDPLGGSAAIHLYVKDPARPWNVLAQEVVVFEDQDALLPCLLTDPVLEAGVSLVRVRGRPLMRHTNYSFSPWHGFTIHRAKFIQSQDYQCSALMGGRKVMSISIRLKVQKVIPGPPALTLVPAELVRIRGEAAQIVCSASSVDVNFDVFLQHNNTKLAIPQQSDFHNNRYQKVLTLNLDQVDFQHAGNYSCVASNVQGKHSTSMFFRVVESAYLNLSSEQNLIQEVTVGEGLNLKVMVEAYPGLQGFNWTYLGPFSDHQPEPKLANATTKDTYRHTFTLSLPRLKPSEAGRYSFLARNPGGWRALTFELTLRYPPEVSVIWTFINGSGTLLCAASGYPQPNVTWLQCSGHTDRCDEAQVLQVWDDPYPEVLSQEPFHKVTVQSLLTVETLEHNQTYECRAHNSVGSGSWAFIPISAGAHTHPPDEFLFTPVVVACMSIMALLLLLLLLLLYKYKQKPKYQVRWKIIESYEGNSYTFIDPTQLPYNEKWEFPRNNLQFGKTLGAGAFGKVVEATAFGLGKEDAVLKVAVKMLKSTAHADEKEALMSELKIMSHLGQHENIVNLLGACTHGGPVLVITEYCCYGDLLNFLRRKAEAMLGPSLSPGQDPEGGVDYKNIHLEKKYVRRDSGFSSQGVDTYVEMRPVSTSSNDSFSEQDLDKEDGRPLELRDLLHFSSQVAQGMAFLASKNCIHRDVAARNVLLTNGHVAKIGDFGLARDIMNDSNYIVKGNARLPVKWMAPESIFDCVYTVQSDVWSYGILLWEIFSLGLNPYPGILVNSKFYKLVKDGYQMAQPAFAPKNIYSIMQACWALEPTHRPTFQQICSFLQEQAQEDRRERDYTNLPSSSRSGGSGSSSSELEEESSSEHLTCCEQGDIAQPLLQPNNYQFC

MAP4K4 = MAP4K4 (Homo sapiens, UniProt O95819); experiment: Kinase activity assay, MAP4K4
A-Raf = molecular target: T1, A-Raf (Homo sapiens, UniProt P10398); experiment: Kinase activity assay, A-Raf
T1 sequence (P10398 1-606): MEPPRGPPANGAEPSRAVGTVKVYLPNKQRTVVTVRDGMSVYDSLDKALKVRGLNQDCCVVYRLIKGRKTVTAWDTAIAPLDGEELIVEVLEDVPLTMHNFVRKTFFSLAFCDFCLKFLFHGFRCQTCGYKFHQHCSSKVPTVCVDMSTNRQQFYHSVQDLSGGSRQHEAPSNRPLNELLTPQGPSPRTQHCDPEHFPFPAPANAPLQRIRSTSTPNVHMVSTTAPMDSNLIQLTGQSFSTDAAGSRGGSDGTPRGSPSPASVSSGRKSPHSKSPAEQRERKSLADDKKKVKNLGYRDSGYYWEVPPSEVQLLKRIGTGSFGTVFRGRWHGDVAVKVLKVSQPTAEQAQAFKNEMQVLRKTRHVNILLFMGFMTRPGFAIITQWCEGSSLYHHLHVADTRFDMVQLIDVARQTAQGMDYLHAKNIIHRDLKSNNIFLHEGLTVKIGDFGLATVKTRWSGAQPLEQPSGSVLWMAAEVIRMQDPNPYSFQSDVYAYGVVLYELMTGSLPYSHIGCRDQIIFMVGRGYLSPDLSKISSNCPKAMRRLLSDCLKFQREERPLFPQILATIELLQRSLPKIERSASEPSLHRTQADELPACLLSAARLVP

C-Raf = C-Raf (Homo sapiens, UniProt P04049); experiment: Kinase activity assay, C-Raf
TEC = molecular target: T2, TEC (Homo sapiens, UniProt P42680); experiment: Kinase activity assay, TEC
T2 sequence (P42680 1-631): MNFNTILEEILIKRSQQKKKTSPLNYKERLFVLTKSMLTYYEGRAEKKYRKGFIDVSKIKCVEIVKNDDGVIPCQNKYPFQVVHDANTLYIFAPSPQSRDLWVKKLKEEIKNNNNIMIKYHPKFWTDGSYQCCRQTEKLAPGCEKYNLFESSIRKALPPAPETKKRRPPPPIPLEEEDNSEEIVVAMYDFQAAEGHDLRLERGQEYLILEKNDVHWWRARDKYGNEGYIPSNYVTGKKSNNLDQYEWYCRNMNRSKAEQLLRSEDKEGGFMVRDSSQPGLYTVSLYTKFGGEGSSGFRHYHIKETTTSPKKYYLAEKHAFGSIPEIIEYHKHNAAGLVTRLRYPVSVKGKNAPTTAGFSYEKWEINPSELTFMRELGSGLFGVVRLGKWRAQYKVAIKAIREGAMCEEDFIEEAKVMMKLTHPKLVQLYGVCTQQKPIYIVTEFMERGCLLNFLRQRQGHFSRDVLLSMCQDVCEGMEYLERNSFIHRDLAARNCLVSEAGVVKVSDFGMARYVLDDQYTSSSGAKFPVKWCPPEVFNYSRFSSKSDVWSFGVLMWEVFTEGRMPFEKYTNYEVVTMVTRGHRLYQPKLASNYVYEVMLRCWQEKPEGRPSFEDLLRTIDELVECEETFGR

Measured: IC50

Chain of Btk (Q06187 whole entry): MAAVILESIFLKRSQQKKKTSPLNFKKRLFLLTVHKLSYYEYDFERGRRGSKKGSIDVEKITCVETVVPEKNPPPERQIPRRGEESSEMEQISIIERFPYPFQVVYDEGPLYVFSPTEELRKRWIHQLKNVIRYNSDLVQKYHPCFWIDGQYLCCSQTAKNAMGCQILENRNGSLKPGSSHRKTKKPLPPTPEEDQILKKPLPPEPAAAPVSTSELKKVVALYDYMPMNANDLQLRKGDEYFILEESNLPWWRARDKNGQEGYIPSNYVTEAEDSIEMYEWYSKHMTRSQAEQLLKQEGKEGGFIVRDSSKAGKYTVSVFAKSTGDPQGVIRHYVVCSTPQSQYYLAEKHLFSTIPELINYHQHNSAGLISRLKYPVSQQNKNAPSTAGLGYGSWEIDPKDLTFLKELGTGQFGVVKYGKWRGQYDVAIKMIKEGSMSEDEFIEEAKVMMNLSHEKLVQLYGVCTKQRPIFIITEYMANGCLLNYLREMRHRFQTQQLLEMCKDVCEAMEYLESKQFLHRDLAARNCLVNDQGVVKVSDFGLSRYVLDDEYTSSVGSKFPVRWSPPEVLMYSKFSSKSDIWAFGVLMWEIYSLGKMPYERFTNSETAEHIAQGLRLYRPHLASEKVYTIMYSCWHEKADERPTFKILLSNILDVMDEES

N#Cc1cnc2[nH]cc(C(=O)c3cccc(NS(=O)(=O)c4cccnc4)c3F)c2c1 [P-2086, Pyridine-3-sulfonic acid [3-(5-cyano-1H-pyrrolo[2,3-b]pyridine-3-carbonyl)-2-fluoro-phenyl]-amide]
≤ 10 µM: Btk

Cn1cc(-c2cnc3[nH]cc(C(=O)c4cc(NS(=O)(=O)c5cccc(OC(F)(F)F)c5)ccc4F)c3c2)cn1 [P-2102, N-{4-Fluoro-3-[5-(1-methyl-1H-pyrazol-4-yl)-1H-pyrrolo[2,3-b]pyridine-3-carbonyl]-phenyl}-3-trifluoromethoxy-benzenesulfonamide]
not listed: MAP4K4 | A-Raf | C-Raf | TEC
≤ 10 µM: all other assays above

Cn1cc(-c2cnc3[nH]cc(C(=O)c4cc(NS(=O)(=O)c5cccc(Cl)c5)ccc4F)c3c2)cn1 [P-2103, 3-Chloro-N-{4-fluoro-3-[5-(1-methyl-1H-pyrazol-4-yl)-1H-pyrrolo[2,3-b]pyridine-3-carbonyl]-phenyl}-benzenesulfonamide]
not listed: MAP4K4 | A-Raf | C-Raf | TEC
≤ 10 µM: all other assays above

O=C(c1cc(NS(=O)(=O)c2ccc(F)cc2)ccc1F)c1c[nH]c2ncccc12 [P-2114, 4-Fluoro-N-[4-fluoro-3-(1H-pyrrolo[2,3-b]pyridine-3-carbonyl)-phenyl]-benzenesulfonamide]
≤ 10 µM: Kit | Kdr | Fms | Btk

CCCS(=O)(=O)Nc1ccc(F)c(C(=O)c2c[nH]c3ncc(-c4cnn(CC(C)C)c4)cc23)c1F [P-2157, Propane-1-sulfonic acid {2,4-difluoro-3-[5-(1-isobutyl-1H-pyrazol-4-yl)-1H-pyrrolo[2,3-b]pyridine-3-carbonyl]-phenyl}-amide]
≤ 10 µM: Src | B-Raf V600E | Kit | Kdr | Fms | Btk

CCCS(=O)(=O)Nc1ccc(F)c(C(=O)c2c[nH]c3ncc(-c4c(C)nn(C)c4C)cc23)c1F [P-2158, Propane-1-sulfonic acid {2,4-difluoro-3-[5-(1,3,5-trimethyl-1H-pyrazol-4-yl)-1H-pyrrolo[2,3-b]pyridine-3-carbonyl]-phenyl}-amide]
≤ 10 µM: Src | B-Raf V600E | Kit | Kdr | Fms | Btk

CCCS(=O)(=O)Nc1ccc(F)c(C(=O)c2c[nH]c3ncc(-c4ccc(F)c(OC)c4)cc23)c1F [P-2159, Propane-1-sulfonic acid {2,4-difluoro-3-[5-(4-fluoro-3-methoxy-phenyl)-1H-pyrrolo[2,3-b]pyridine-3-carbonyl]-phenyl}-amide]
≤ 10 µM: Src | B-Raf V600E | Kit | Kdr | Fms | Btk

CCCS(=O)(=O)Nc1ccc(F)c(C(=O)c2c[nH]c3ncc(-c4ccc(F)c(C(F)(F)F)c4)cc23)c1F [P-2160, Propane-1-sulfonic acid {2,4-difluoro-3-[5-(4-fluoro-3-trifluoromethyl-phenyl)-1H-pyrrolo[2,3-b]pyridine-3-carbonyl]-phenyl}-amide]
≤ 10 µM: B-Raf V600E | Kdr | Btk

O=C(c1c(F)ccc(NS(=O)(=O)C2CCC2)c1F)c1c[nH]c2ncc(Cl)cc12 [P-2354, Cyclobutanesulfonic acid [3-(5-chloro-1H-pyrrolo[2,3-b]pyridine-3-carbonyl)-2,4-difluoro-phenyl]-amide]
not listed: Btk | Fms
≤ 10 µM: all other assays above

CCS(=O)(=O)Nc1cccc(C(=O)c2c[nH]c3ncc(C#N)cc23)c1F [P-2410, Ethanesulfonic acid [3-(5-cyano-1H-pyrrolo[2,3-b]pyridine-3-carbonyl)-2-fluoro-phenyl]-amide]
≤ 10 µM: B-Raf V600E | C-Raf | Btk

CCCS(=O)(=O)Nc1ccc(F)c(C(=O)c2c[nH]c3ncc(-c4cnn(C)c4)cc23)c1Cl [P-2429, Propane-1-sulfonic acid {2-chloro-4-fluoro-3-[5-(1-methyl-1H-pyrazol-4-yl)-1H-pyrrolo[2,3-b]pyridine-3-carbonyl]-phenyl}-amide]
≤ 10 µM: Src | B-Raf V600E | Fms | Btk

Cn1cc(-c2cnc3[nH]cc(C(=O)c4cc(NS(=O)(=O)C5CC5)ccc4F)c3c2)cn1 [P-2433, Cyclopropanesulfonic acid {4-fluoro-3-[5-(1-methyl-1H-pyrazol-4-yl)-1H-pyrrolo[2,3-b]pyridine-3-carbonyl]-phenyl}-amide]
≤ 10 µM: Src | B-Raf V600E | Kit | Kdr | Fms | Btk

CCCS(=O)(=O)Nc1cccc(C(=O)c2c[nH]c3ncc(Cl)cc23)c1 [P-2449, Propane-1-sulfonic acid [3-(5-chloro-1H-pyrrolo[2,3-b]pyridine-3-carbonyl)-phenyl]-amide]
≤ 10 µM: B-Raf V600E | Kit | Kdr | Fms | Btk

Cn1cc(-c2cnc3[nH]cc(C(=O)c4cccc(NS(=O)(=O)C5CC5)c4)c3c2)cn1 [P-2456, Cyclopropanesulfonic acid {3-[5-(1-methyl-1H-pyrazol-4-yl)-1H-pyrrolo[2,3-b]pyridine-3-carbonyl]-phenyl}-amide]
≤ 10 µM: B-Raf V600E | Kit | Kdr | Fms | Btk

CN(C)S(=O)(=O)Nc1ccc(F)c(C(=O)c2c[nH]c3ncccc23)c1 [P-2469, N,N-dimethylamino-sulfonic acid [4-fluoro-3-(1H-pyrrolo[2,3-b]pyridine-3-carbonyl)-phenyl]-amide]
≤ 10 µM: Kdr | Fms | Btk
